For series [1], the system named is blood glucose. In words: Blood glucose after buccal bilayer tablet, double-blind placebo-controlled crossover. Particulars: 400 μg buccal bilayer tablet, fasting healthy volunteers. An excerpt:
This example describes a double-blind, placebo-controlled, crossover comparison with random assignment to treatment sequence. […] Inclusion criteria for the volunteers were normal glucose tolerance, weight within 22<BMI<26, informed consent to participate in the study, and age between 20 and 60 years. […]
Subject numbers were allotted to the subjects in the order in which they were enrolled in the study. The number allotted to each subject determined the treatment sequence received. […]
Subjects were instructed to fast the night before a treatment. […] Standard safety variables were determined under fasting conditions before each experiment. Blood glucose was monitored frequently and glucose infusion was available in case of hypoglycemia (<2.5 mmol/L). […]
(§1) Blood samples were taken for pharmacokinetic analysis 10 minutes before application of the drug, and at 5, 10, 15, 20, 25, 30, 40, 50, 60, 75, 90, 120, 150, 180, 210, 240, and 270 minutes and 6 and 8 hours after application of the drug. […] The peptide content of bilayer tablet samples was also analyzed by HPLC. […]

Series [2] in a line: clinical.
Excerpt: This example describes a double-blind, placebo-controlled, crossover comparison with random assignment to treatment sequence. […] Inclusion criteria for the volunteers were normal glucose tolerance, weight within 22<BMI<26, informed consent to participate in the study, and age between 20 and 60 years. Exclusion criteria were impaired glucose tolerance (2-hour glucose tolerance test; OGTT), gastrointestinal symptoms, ongoing medication or illness, acute infection, abnormal laboratory variables (hemoglobin, hematocrit, leucocytes, creatinine, bilirubin, calcium, potassium, sodium, alkaline phosphatase, gamma-GT, SGOT, SGPT, cholesterol, and triglycerides), and blood pressure greater than 185 mmHg systolic and/or 90 mmHg diastolic.
Subject numbers were allotted to the subjects in the order in which they were enrolled in the study. The number allotted to each subject determined the treatment sequence received. Subjects receiving treatment sequence 1 were treated with drug followed by placebo, and subjects receiving treatment sequence 2 were treated with placebo followed by drug.
Subjects were instructed to fast the night before a treatment. At the clinic, the subjects were given either a drug-containing bilayer tablet or placebo. […] Standard safety variables were determined under fasting conditions before each experiment. Blood glucose was monitored frequently and glucose infusion was available in case of hypoglycemia (<2.5 mmol/L). […]
as §1
The data summarized in FIG. 7 were analyzed by AUC to provide an estimate of relative bioavailability by buccal administration as compared to subcutaneous administration.

Series [3] in a line: Published subcutaneous administration of GLP-1 to fasting subjects (Nauck, FIG. 8). The format is in vivo, human. An excerpt:
A study by M. A. Nauck of subcutaneous administration of GLP-1 to fasting subjects illustrates changes in the pharmocokinetics with dose (FIG. 8). This could be due to changes in bioavailability with dose, changes in clearance with dose, or a combination of both effects.

For series [4] the following is noted: intravenous infusion, fasting individuals, published data; cited from earlier work.
Setting [5] is: after administration, 400 μg buccal bilayer tablet.

Consider 2 compounds from US5766620A, “Buccal delivery of glucagon-like insulinotropic peptides” (TheraTech, Inc., priority 1995, dated 1998).

Where two headings read alike, the source gives them in different places. Bounds are passed on as bounds.

As for `CC[C@H](C)[C@H](NC(=O)[C@H](Cc1ccccc1)NC(=O)[C@H](CCC(=O)O)NC(=O)[C@H](CCCCN)NC(=O)[C@H](C)NC(=O)[C@H](C)NC(=O)[C@H](CCC(N)=O)NC(=O)CNC(=O)[C@H](CCC(=O)O)NC(=O)[C@H](CC(C)C)NC(=O)[C@H](Cc1ccc(O)cc1)NC(=O)[C@H](CO)NC(=O)[C@H](CO)NC(=O)[C@@H](NC(=O)[C@H](CC(=O)O)NC(=O)[C@H](CO)NC(=O)[C@@H](NC(=O)[C@H](Cc1ccccc1)NC(=O)[C@@H](NC(=O)CNC(=O)[C@H](CCC(=O)O)NC(=O)[C@H](C)NC(=O)[C@@H](N)Cc1c[nH]cn1)[C@@H](C)O)[C@@H](C)O)C(C)C)C(=O)N[C@@H](C)C(=O)N[C@@H](Cc1c[nH]c2ccccc12)C(=O)N[C@@H](CC(C)C)C(=O)N[C@H](C(=O)N[C@@H](CCCCN)C(=O)NCC(=O)N[C@@H](CCCNC(=N)N)C(N)=O)C(C)C` [GLP-1(7-36)amide], in series [1], the hypoglycemia result is given as “does not result in hypoglycemia”. Moreover, in series [2] (setting [5]), the “time of onset of sharp rise of plasma GLP-1(7-36)amide level” value was not above 5 min and the “time until which elevated GLP-1(7-36)amide levels remain in the blood” value was “about 150 minutes”. This compound also yielded a F rel in series [2] (human, plasma, 400 ug) of 27%.
Regarding “GLP-1: GLP-1 given intravenously (7-37 and 7-36 amide) or subcutaneously to fasting subjects in published studies used for comparison”, the “bioavailability by subcutaneous administration relative to intravenous administration” value in series [3] (subcutaneous) turned out to be 38%. Moreover, the clearance entry in series [3] (subcutaneous administration, regression analysis of all results) was “about 40 ml/min/kg”; in series [4], approximately 15 mL/min/kg.
